From patent US10723741B1, “DNA polymerase IIIC inhibitors and use thereof” (Acurx Pharmaceuticals, LLC, priority 2018, dated 2020)
Converted amounts (≈) assume the structure as drawn. Structures can show the parent of a compound that is named as a salt. Where two headings read alike, the source gives them in different places.

Assays:
Format in all cases: cell-based
[1] = system: Enterococcus faecalis ATCC 29212; test: Broth microdilution MIC, E. faecalis ATCC 29212; details: read-out: MIC E. faecalis ATCC 29212
In short: (§1)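 Broth microdilution in strain-specific test medium with ~5.0×10^5 cfu/ml inoculum, 1% DMSO and two-fold compound dilutions from 64 to 0.0625 μg/ml. Plates were held 20 hours at 37° C in ambient air. S. pneumoniae colonies were grown beforehand on blood agar in 5% CO2.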

[2] = system: Staphylococcus aureus ATCC 29213 (MSSA); test: Broth microdilution MIC, S. aureus ATCC 29213 (MSSA); details: read-out: MIC S. aureus ATCC 29213 (MSSA)
In short: as §1

[3] = system: Escherichia coli ATCC 25922; test: Broth microdilution MIC, E. coli ATCC 25922 (MHIIB w & w/o 4 mM EDTA); details: for MIC: Escherichia coli, read-out: MIC E. coli ATCC 25922; for MIC E. coli ATCC 25922 + 4 mM EDTA: with 4 mM EDTA
In short: as §1

[4] = system: Bacillus subtilis ATCC 6633; test: Broth microdilution MIC, B. subtilis ATCC 6633; details: read-out: MIC B. subtilis ATCC 6633
In short: as §1

[5] = system: Streptococcus pneumoniae ATCC 49619; test: Broth microdilution MIC, S. pneumoniae ATCC 49619; details: read-out: MIC S. pneumoniae ATCC 49619
In short: as §1

[6] = system: Enterococcus faecium ATCC 700221 (VRE); test: Broth microdilution MIC, E. faecium ATCC 700221 (VRE); details: Enterococcus faecium, read-out: MIC E. faecium ATCC 700221 (VRE)
In short: as §1

[7] = system: Staphylococcus aureus NRS384 (MRSA); test: Broth microdilution MIC, S. aureus NRS384 (MRSA); details: Staphylococcus aureus, read-out: MIC NRS 384 (MRSA)
In short: as §1

[8] = ATCC29212, broth microdilution, 37° C., 20 hours
[9] = broth microdilution, 37° C., 20 hours
[10] = ATCC25922, without EDTA, broth microdilution, 37° C., 20 hours
[11] = ATCC6633, broth microdilution, 37° C., 20 hours
[12] = ATCC49619, broth microdilution, 37° C., 20 hours

MIC [1, 8]	MIC [2, 9]	MIC [3, 10]	MIC E. coli ATCC 25922 + 4 mM EDTA [3, 9]	MIC [4, 11]	MIC [5, 12]	MIC [6, 9]	MIC [7, 9]	SMILES	MIC ([1]; ATCC29212, 20 h)	MIC ([2]; 20 h)	MIC ([3]; ATCC25922, 20 h)	MIC ([4]; ATCC6633, 20 h)	MIC ([5]; ATCC49619, 20 h)	MIC ([6]; 20 h)	MIC ([7]; 20 h)
8 µg/mL (≈ 21.7 µM)	4 µg/mL (≈ 10.9 µM)	> 64 µg/mL	>64 µg/mL	2 µg/mL (≈ 5.43 µM)	8 µg/mL (≈ 21.7 µM)	2 µg/mL (≈ 5.43 µM)	4 µg/mL (≈ 10.9 µM)	C[C@@H](O)Cn1ncc2nc(NCc3ccc(Cl)c(Cl)c3)[nH]c(=O)c21 [Compound 239, (R)-5-((3,4-dichlorobenzyl)amino)-1-(2-hydroxypropyl)-1H-pyrazolo[4,3-d]pyrimidin-7(6H)-one]							
8 µg/mL (≈ 21.7 µM)	4 µg/mL (≈ 10.9 µM)	> 64 µg/mL	>64 µg/mL	2 µg/mL (≈ 5.43 µM)	4 µg/mL (≈ 10.9 µM)	4 µg/mL (≈ 10.9 µM)	4 µg/mL (≈ 10.9 µM)	C[C@H](O)Cn1ncc2nc(NCc3ccc(Cl)c(Cl)c3)[nH]c(=O)c21 [Compound 240, (S)-5-((3,4-dichlorobenzyl)amino)-1-(2-hydroxypropyl)-1H-pyrazolo[4,3-d]pyrimidin-7(6H)-one]							
32 µg/mL	32 µg/mL	> 64 µg/mL	>64 µg/mL	4 µg/mL	8 µg/mL	64 µg/mL	64 µg/mL	CN1CCC(O)(Cn2ncc3nc(NCc4ccc(Cl)c(Cl)c4)[nH]c(=O)c32)CC1.Cl [Compound 241, 5-((3,4-dichlorobenzyl)amino)-1-((4-hydroxy-1-methylpiperidin-4-yl)methyl)-1H-pyrazolo[4,3-d]pyrimidin-7(6H)-one hydrochloride]							
4 µg/mL	2 µg/mL	> 64 µg/mL	16 µg/mL	1 µg/mL	4 µg/mL	2 µg/mL	2 µg/mL	Cl.Cl.O=c1[nH]c(NCc2ccc(Cl)c(Cl)c2)nc2cnn(C3CCN(Cc4ccccn4)CC3)c12 [Compound 244, 5-((3,4-Dichlorobenzyl)amino)-1-(1-(pyridin-2-ylmethyl)piperidin-4-yl)-1H-pyrazolo[4,3-d]pyrimidin-7(6H)-one dihydrochloride]							
4 µg/mL	2 µg/mL	> 64 µg/mL	32 µg/mL	1 µg/mL	2 µg/mL	1 µg/mL	2 µg/mL	Cl.Cl.O=c1[nH]c(NCc2ccc(Cl)c(Cl)c2)nc2cnn(C3CCN(Cc4cccnc4)CC3)c12 [Compound 245, 5-((3,4-Dichlorobenzyl)amino)-1-(1-(pyridin-3-ylmethyl)piperidin-4-yl)-1H-pyrazolo[4,3-d]pyrimidin-7(6H)-one dihydrochloride]							
4 µg/mL	2 µg/mL	> 64 µg/mL	>64 µg/mL	1 µg/mL	4 µg/mL	2 µg/mL	2 µg/mL	Cl.Cl.O=c1[nH]c(NCc2ccc(Cl)c(Cl)c2)nc2cnn(C3CCN(Cc4ccncc4)CC3)c12 [Compound 246, 5-((3,4-Dichlorobenzyl)amino)-1-(1-(pyridin-4-ylmethyl)piperidin-4-yl)-1H-pyrazolo[4,3-d]pyrimidin-7(6H)-one dihydrochloride]							
32 µg/mL	32 µg/mL	> 64 µg/mL	64 µg/mL	8 µg/mL	8 µg/mL	32 µg/mL	64 µg/mL	Cl.Cl.O=c1[nH]c(NCc2ccc(Cl)c(Cl)c2)nc2cnn(C3CCN(CC4CCNCC4)CC3)c12 [Compound 247, 5-((3,4-dichlorobenzyl)amino)-1-(1-(piperidin-4-ylmethyl)piperidin-4-yl)-1H-pyrazolo[4,3-d]pyrimidin-7(6H)-one dihydrochloride]							

Second part, the molecule before the results:

SMILES	MIC [1, 8]	MIC [2, 9]	MIC [3, 10]	MIC E. coli ATCC 25922 + 4 mM EDTA [3, 9]	MIC [4, 11]	MIC [5, 12]	MIC [6, 9]	MIC [7, 9]	MIC ([1]; ATCC29212, 20 h)	MIC ([2]; 20 h)	MIC ([3]; ATCC25922, 20 h)	MIC ([4]; ATCC6633, 20 h)	MIC ([5]; ATCC49619, 20 h)	MIC ([6]; 20 h)	MIC ([7]; 20 h)
COC(=O)CCn1ncc2nc(NCc3ccc(Cl)c(Cl)c3)[nH]c(=O)c21 [Compound 231, Methyl 3-(5-((3,4-dichlorobenzyl)amino)-7-oxo-6,7-dihydro-1H-pyrazolo[4,3-d]pyrimidin-1-yl)propanoate]	4 µg/mL (≈ 10.1 µM)	4 µg/mL (≈ 10.1 µM)	> 64 µg/mL	>64 µg/mL	1 µg/mL (≈ 2.52 µM)	4 µg/mL (≈ 10.1 µM)	2 µg/mL (≈ 5.05 µM)	2 µg/mL (≈ 5.05 µM)							
COC(=O)CCn1cc2nc(NCc3ccc(Cl)c(Cl)c3)[nH]c(=O)c2n1 [Compound 232, Methyl 3-(5-((3,4-dichlorobenzyl)amino)-7-oxo-6,7-dihydro-2H-pyrazolo[4,3-d]pyrimidin-2-yl)propanoate]	> 64 µg/mL	> 64 µg/mL	> 64 µg/mL	>64 µg/mL	16 µg/mL (≈ 40.4 µM)	16 µg/mL (≈ 40.4 µM)	16 µg/mL (≈ 40.4 µM)	32 µg/mL (≈ 80.8 µM)							
Cc1nnc(CCn2ncc3nc(NCc4ccc(Cl)c(Cl)c4)[nH]c(=O)c32)o1 [Compound 233, 5-((3,4-dichlorobenzyl)amino)-1-(2-(5-methyl-1,3,4-oxadiazol-2-yl)ethyl)-1H-pyrazolo[4,3-d]pyrimidin-7(6H)-one]	4 µg/mL (≈ 9.52 µM)	4 µg/mL (≈ 9.52 µM)	> 64 µg/mL	64 µg/mL	2 µg/mL (≈ 4.76 µM)	2 µg/mL (≈ 4.76 µM)	2 µg/mL (≈ 4.76 µM)	4 µg/mL (≈ 9.52 µM)							
Cl.O=c1[nH]c(NCc2ccc(Cl)c(Cl)c2)nc2cnn(CCc3nnc(CO)o3)c12 [Compound 234, 5-((3,4-dichlorobenzyl)amino)-1-(2-(5-(hydroxymethyl)-1,3,4-oxadiazol-2-yl)ethyl)-1H-pyrazolo[4,3-d]pyrimidin-7(6H)-one hydrochloride]	32 µg/mL	64 µg/mL	> 64 µg/mL	>64 µg/mL	16 µg/mL	16 µg/mL	8 µg/mL	64 µg/mL							
COCc1nnc(CCn2ncc3nc(NCc4ccc(Cl)c(Cl)c4)[nH]c(=O)c32)o1.Cl [Compound 235, 5-((3,4-dichlorobenzyl)amino)-1-(2-(5-(methoxymethyl)-1,3,4-oxadiazol-2-yl)ethyl)-1H-pyrazolo[4,3-d]pyrimidin-7(6H)-one hydrochloride]	8 µg/mL	8 µg/mL	> 64 µg/mL	>64 µg/mL	4 µg/mL	8 µg/mL	4 µg/mL	16 µg/mL							
Cl.O=c1[nH]c(NCc2ccc(Cl)c(Cl)c2)nc2cnn(CC3C(O)C4CCN3CC4)c12 (centres unmarked) [Compound 236, 5-((3,4-Dichlorobenzyl)amino)-1-((3-hydroxyquinuclidin-2-yl)methyl)-1H-pyrazolo[4,3-d]pyrimidin-7(6H)-one]	64 µg/mL	> 64 µg/mL	> 64 µg/mL	64 µg/mL	32 µg/mL	8 µg/mL	64 µg/mL	> 64 µg/mL							
NS(=O)(=O)CCn1ncc2nc(NCc3ccc(Cl)c(Cl)c3)[nH]c(=O)c21 [Compound 237, 2-(5-((3,4-dichlorobenzyl)amino)-7-oxo-6,7-dihydro-1H-pyrazolo[4,3-d]pyrimidin-1-yl)ethanesulfonamide]	32 µg/mL (≈ 76.7 µM)	32 µg/mL (≈ 76.7 µM)	> 64 µg/mL	64 µg/mL	16 µg/mL (≈ 38.3 µM)	4 µg/mL (≈ 9.59 µM)	16 µg/mL (≈ 38.3 µM)	32 µg/mL (≈ 76.7 µM)							
CC(C)(C)NS(=O)(=O)CCn1ncc2nc(NCc3ccc(Cl)c(Cl)c3)[nH]c(=O)c21 [Compound 238, N-(tert-butyl)-2-(5-((3,4-dichlorobenzyl)amino)-7-oxo-6,7-dihydro-1H-pyrazolo[4,3-d]pyrimidin-1-yl)ethanesulfonamide]	8 µg/mL (≈ 16.9 µM)	8 µg/mL (≈ 16.9 µM)	> 64 µg/mL	>64 µg/mL	4 µg/mL (≈ 8.45 µM)	8 µg/mL (≈ 16.9 µM)	2 µg/mL (≈ 4.22 µM)	4 µg/mL (≈ 8.45 µM)							
CN1CCC(n2ncc3nc(NCc4ccc(Cl)c(Cl)c4)[nH]c(=O)c32)C1 (centres unmarked) [Compound 243, 5-((3,4-Dichlorobenzyl)amino)-1-(1-methylpyrrolidin-3-yl)-1H-pyrazolo[4,3-d]pyrimidin-7(6H)-one TFA salt]				32 µg/mL					8 µg/mL	8 µg/mL	> 64 µg/mL	4 µg/mL	4 µg/mL	4 µg/mL	8 µg/mL
